Data: the NIST ThermoML archive (doi:10.1016/j.fluid.2012.06.014)

Details: for viscosity / mass density: 101.33 kPa, Liquid; for viscosity: Capillary tube (Ostwald / Ubbelohde) method; for mass density: Vibrating tube method

CCCCCCn1cc[n+](C)c1.N#C[B-](C#N)(C#N)C#N [1-hexyl-3-methylimidazolium tetracyanoborate]
Details	mass density [kg/m3]	viscosity [mPa·s]
293.15 K	993.4	66.61
298.15 K	989.8	49.8
303.15 K	986.2	38.92
308.15 K	982.7	31.04
313.15 K	979.1	25.2
318.15 K	975.6	20.8
323.15 K	972.1	17.41
328.14 K	968.6	14.76
333.14 K	965.2	12.66
338.14 K	961.7	10.97
343.14 K	958.3	9.584
348.14 K	954.9	8.445
353.15 K	951.5	7.497
358.14 K	948.1	6.701
363.14 K	944.8	6.026

Details	surface tension liquid-gas [mN/m]
298.15 K, Pendant drop shape	41.1
